Source: patent publication US20010000786A1, “Product for promoting weight loss in overweight dogs” (priority 1998, published 2001)

How the values were obtained:
overweight dogs [1] = test: Body weight and food intake of overweight dogs fed low-fat diets with supplemental L-carnitine; assay type: in vivo, beagle dogs; conditions: for average voluntary consumption of the diet: seven weeks of feeding; for body weight change: seven weeks ad libitum, P<0.05 from control
Excerpt: (§1) Thirty adult ovariohysterectomized female beagle dogs were used to study the effects of L-carnitine supplementation on weight loss. All of the animals were current on their vaccination and parasite prevention program. The dogs were housed individually in oversize pens and identified by a unique ear tattoo. Fresh water was provided ad libitum during the entire study period. Food intake was adjusted as necessary to achieve the desired weight for the study period.
Three dietary treatments were evaluated. The study consisted of three periods: weight gain, maintenance, and weight loss. During the eleven-week weight gain period, all dogs were fed a single diet Eukanuba Veterinary Diets® Nutritional Recovery Formula™ which contains 36.1 wt % protein, 26.1 wt % fat, and 2.1 wt % crude fiber) ad libitum.
(§2) At the initiation of the maintenance phase of the study (baseline or day 0), the dogs were randomized based on body weight into three dietary treatment groups of ten dogs each with a three day feed transition period starting on day 0. Each treatment group was randomly assigned to one of three low-fat diets (Table 1). The only difference between diets was the addition of 0, 50, or 100 ppm supplemental L-carnitine. No differences in the initial body weight or body condition score existed between groups.
The dogs were on 100% experimental diet on day 3 and were fed ad libitum during the seven-week maintenance phase of the study.
(§3) During the twelve-week weight loss phase of the study, the same experimental diets were offered as during the maintenance phase. However, the food intake was decreased to produce approximately 1.5 to 2.5% body weight loss per week. Exact amounts of experimental diets were fed to the dogs at approximately the same time each day, and remaining feed amounts were weighed the following day. Food intake and body weight were monitored daily and weekly, respectively. Whole body composition using the Dual Energy X-ray Absorptiometer (DEXA), and blood samples for CBC and chemistry were collected periodically during the study. Whole Body Composition by Dual Energy X-ray Absorptiometry. The dogs were scanned with a Hologic QDR-2000 Plus Dual-Energy X-Ray Absorptiometry (DEXA) bone densitometer, supported with Hologic MXA software, version 8.0. All dogs were anesthetized and placed on the Dual Energy X-ray Absorptiometry (DEXA) table in dorsal recumbency, with legs stretched caudally to avoid overlap of the legs over the body. The dogs were scanned using the Enhanced Array Whole Body software. The body composition measurements recorded consisted of surface area (cm^2), bone mineral content (BMC), bone mineral density (BMD), lean mass, fat content, percent fat, and estimated body weight. All measurements were reported in grams except for percent fat and area (cm^2). Percent lean and percent BMC were calculated from the lean mass, BMC, and estimated body weight data from the DEXA results.
A repeated measure classification analysis of variance was used to study “Treatment” and time dependent “Treatment×Time” effects (Gill and Hafs, J. Animal Sci. 33(2):331(1971)). The variables from the complete blood count, blood chemistry, body composition and body weights were studied using this analysis. All F-tests and mean separations using the Least Square Difference (LSD) used 0.05 Type 1 Error rate. […]

overweight dogs [2] = test: Whole body composition by Dual Energy X-ray Absorptiometry (DEXA); assay type: in vivo, beagle dogs
Excerpt: as §1, §2, §3
The whole body composition was performed concomitantly and under anesthesia. The anesthetic regimen consisted of Atropine (0.01 mg/lb) as a pre-anesthetic, the combination Xylazine/Telazol/Torbugesic (0.8/6.7/0.13 mg/kg) as induction and Isoflurane (Aerrane, Ohmeda Pharmaceutical Products, Liberty Corner, N.J.) as a maintenance agent using a nose cone.
A repeated measure classification analysis of variance was used to study “Treatment” and time dependent “Treatment×Time” effects (Gill and Hafs, J. Animal Sci. 33(2):331(1971)). The variables from the complete blood count, blood chemistry, body composition and body weights were studied using this analysis. All F-tests and mean separations using the Least Square Difference (LSD) used 0.05 Type 1 Error rate. One degree of freedom comparisons between experimental diets B versus C (comparison 1) and A versus B and C (comparison 2) were computed for the body composition and body weight variables. Comparisons 1 and 2 form an orthogonal set. An a of 0.05 was used to test for non-zero value of the mean of the two groups defined per contract. The “Treatment×Time” interaction was investigated by computing a test for linear, quadratic, and cubic response over time for each treatment. Then a test of parallelism, equal quadric response and equal cubic response was done to test equality of trend in response among treatments. An α of 0.05 for the F-tests was used in all cases. All computations were done using SAS (statistical analysis system) software (1989).

[3] = 50 ppm supplemental carnitine, Week 0
[4] = 50 ppm supplemental carnitine, Week 7
[5] = 100 ppm supplemental carnitine, Week 0
[6] = 100 ppm supplemental carnitine, Week 7

C[N+](C)(C)C[C@H](O)CC(=O)[O-] [L-carnitine]
total weight loss per total food intake compared with no supplementation (overweight dogs [1]; 50 and 100 ppm, FIG. 7, P<0.05): greater total weight loss per total food intake
average voluntary consumption of the diet (overweight dogs [1]; 50 ppm carnitine): 1574 g/week
body weight change (overweight dogs [1]; 50 ppm supplemental carnitine in low-fat diet): −6.4%
average voluntary consumption of the diet (overweight dogs [1]; 100 ppm carnitine): 1567 g/week
body weight change (overweight dogs [1]; 100 ppm supplemental carnitine in low-fat diet): −5.7%
lean body mass compared with no supplementation (overweight dogs [2]; 50 and 100 ppm, FIG. 6): leaner body mass
body fat loss compared to no (0 ppm) supplementation (overweight dogs [2]; 50 and 100 ppm, difference day 0 to day 49, day 92, day 133 as percentage of day 0, FIG. 5): more body fat loss (P<0.05)
body fat loss compared to 0 ppm supplementation (overweight dogs [2]; 50 and 100 ppm, difference day 0 to day 49 as percentage of day 0, FIG. 4): more body fat loss (P<0.05)
BMC (bone mineral content) as percent of total body mass (overweight dogs [2]; [3]): 1.6%
Fat mass as percent of total body mass (overweight dogs [2]; [3]): 42.4%
LBM (lean body mass) as percent of total body mass (overweight dogs [2]; [3]): 56.0%
BMC (bone mineral content) as percent of total body mass (overweight dogs [2]; [4]): 1.7%
Fat mass as percent of total body mass (overweight dogs [2]; [4]): 37.8%
LBM (lean body mass) as percent of total body mass (overweight dogs [2]; [4]): 60.5%
BMC (bone mineral content) as percent of total body mass (overweight dogs [2]; [5]): 1.6%
Fat mass as percent of total body mass (overweight dogs [2]; [5]): 42.5%
LBM (lean body mass) as percent of total body mass (overweight dogs [2]; [5]): 55.9%
BMC (bone mineral content) as percent of total body mass (overweight dogs [2]; [6]): 1.6%
Fat mass as percent of total body mass (overweight dogs [2]; [6]): 38.9%
LBM (lean body mass) as percent of total body mass (overweight dogs [2]; [6]): 59.5%
